Measured values reported in ChEMBL document CHEMBL5724914, “Linking interpersonal differences in gut microbiota composition and drug biotransformation activity” (2024).

What was measured:
[1] = (§1) The drug is tested on WLS-086 corresponding to human gut metagenome with ENA study accession number: PRJEB37062 and ENA sample accession number: ERS12561752 for biotransformation under anaerobic condition. The drug concentrations were measured over 9 timepoints collected between 0 and 24 hours of incubation by liquid-chromatography-coupled mass spectrometry (LC–MS); conditions: 2 µM
[2] = as §1, with “Z-011” for “WLS-086”, “mouse” for “human”, “ERS12561811” for “ERS12561752”; conditions: 2 µM
[3] = human gut metagenome, 24 h, 2 µM
[4] = as §1, with “Z-007” for “WLS-086”, “rat” for “human”, “ERS12561807” for “ERS12561752”; conditions: 2 µM
[5] = human gut metagenome, 24 h, 2 µM; remark: listed apart in the source
[6] = as §1, with “Z-005” for “WLS-086”, “to” for “to human gut”, “ERS12561805” for “ERS12561752”; conditions: 2 µM
[7] = human gut metagenome, 24 h, 2 µM; remark: listed apart in the source
[8] = as §1, with “Z-003” for “WLS-086”, “pig” for “human”, “ERS12561803” for “ERS12561752”; conditions: 2 µM
[9] = human gut metagenome, 24 h, 2 µM; remark: listed apart in the source
[10] = as §1, with “Z-019” for “WLS-086”, “rat” for “human”, “ERS12561818” for “ERS12561752”; conditions: 2 µM
[11] = as §1, with “Z-006” for “WLS-086”, “mouse” for “human”, “ERS12561806” for “ERS12561752”; conditions: 2 µM
[12] = human gut metagenome, 24 h, 2 µM; remark: listed apart in the source
[13] = human gut metagenome, 24 h, 2 µM; remark: listed apart in the source
[14] = human gut metagenome, 24 h, 2 µM; remark: listed apart in the source
[15] = as §1, with “WLS-010” for “WLS-086”, “ERS12561743” for “ERS12561752”; conditions: 2 µM
[16] = human gut metagenome, 24 h, 2 µM; remark: listed apart in the source
[17] = human gut metagenome, 24 h, 2 µM; remark: listed apart in the source
[18] = human gut metagenome, 24 h, 2 µM; remark: listed apart in the source
[19] = as §1, with “WLS-077” for “WLS-086”, “ERS12561750” for “ERS12561752”; conditions: 2 µM
[20] = human gut metagenome, 24 h, 2 µM; remark: listed apart in the source
Further: call rule not given here.

| Structure (SMILES) | Bacterial Biotransformation [1] | Bacterial Biotransformation [2] | Bacterial Biotransformation [3] | Bacterial Biotransformation [4] | Bacterial Biotransformation [5] | Bacterial Biotransformation [6] | Bacterial Biotransformation [7] | Bacterial Biotransformation [8] | Bacterial Biotransformation [9] | Bacterial Biotransformation [10] | Bacterial Biotransformation [11] | Bacterial Biotransformation [12] | Bacterial Biotransformation [13] | Bacterial Biotransformation [14] | Bacterial Biotransformation [15] | Bacterial Biotransformation [16] | Bacterial Biotransformation [17] | Bacterial Biotransformation [18] | Bacterial Biotransformation [19] | Bacterial Biotransformation [20] |
| --- | --- | --- | --- | --- | --- | --- | --- | --- | --- | --- | --- | --- | --- | --- | --- | --- | --- | --- | --- | --- |
| CN1C(=O)CC(C)(c2ccccc2)C1=O (stereo not given) [METHSUXIMIDE] | Compound metabolized | Compound NOT metabolized | Compound NOT metabolized | Compound NOT metabolized | Compound NOT metabolized | Compound NOT metabolized | Compound metabolized | Compound NOT metabolized | Compound NOT metabolized | Compound NOT metabolized | Compound NOT metabolized | Compound NOT metabolized | Compound NOT metabolized | Compound NOT metabolized | Compound NOT metabolized | Compound metabolized | Compound NOT metabolized | Compound metabolized | Compound NOT metabolized | Compound NOT metabolized |
| COc1ccccc1N1CCN(CC(O)COc2cccc3ccccc23)CC1 (stereo not given) [NAFTOPIDIL] | Compound NOT metabolized | Compound NOT metabolized | Compound NOT metabolized | Compound NOT metabolized | Compound NOT metabolized | Compound NOT metabolized | Compound NOT metabolized | Compound NOT metabolized | Compound NOT metabolized | Compound NOT metabolized | Compound NOT metabolized | Compound NOT metabolized | Compound NOT metabolized | Compound NOT metabolized | Compound NOT metabolized | Compound NOT metabolized | Compound NOT metabolized | Compound NOT metabolized | Compound NOT metabolized | Compound NOT metabolized |
| O=C(O)CCc1nc(-c2ccccc2)c(-c2ccccc2)o1 [OXAPROZIN] | Compound metabolized | Compound NOT metabolized | Compound metabolized | Compound NOT metabolized | Compound metabolized | Compound metabolized | Compound NOT metabolized | Compound metabolized | Compound metabolized | Compound NOT metabolized | Compound NOT metabolized | Compound metabolized | Compound metabolized | Compound metabolized | Compound metabolized | Compound NOT metabolized | Compound metabolized | Compound metabolized | Compound metabolized | Compound metabolized |
| CC(C)(C)NC[C@H](O)COc1ccccc1C1CCCC1.CC(C)(C)NC[C@H](O)COc1ccccc1C1CCCC1.O=S(=O)(O)O [PENBUTOLOL SULFATE] | Compound metabolized | Compound NOT metabolized | Compound metabolized | Compound NOT metabolized | Compound metabolized | Compound metabolized | Compound metabolized | Compound metabolized | Compound metabolized | Compound NOT metabolized | Compound NOT metabolized | Compound metabolized | Compound metabolized | Compound metabolized | Compound metabolized | Compound metabolized | Compound NOT metabolized | Compound metabolized | Compound metabolized | Compound metabolized |
| CCOc1ccc(NC(C)=O)cc1 [PHENACETIN] | Compound NOT metabolized | Compound NOT metabolized | Compound NOT metabolized | Compound NOT metabolized | Compound NOT metabolized | Compound NOT metabolized | Compound NOT metabolized | Compound NOT metabolized | Compound NOT metabolized | Compound NOT metabolized | Compound NOT metabolized | Compound NOT metabolized | Compound NOT metabolized | Compound NOT metabolized | Compound NOT metabolized | Compound NOT metabolized | Compound NOT metabolized | Compound NOT metabolized | Compound NOT metabolized | Compound NOT metabolized |
| Nc1ccc(/N=N/c2ccccc2)c(N)n1 [PHENAZOPYRIDINE] | Compound metabolized | Compound metabolized | Compound metabolized | Compound metabolized | Compound metabolized | Compound metabolized | Compound metabolized | Compound metabolized | Compound metabolized | Compound metabolized | Compound metabolized | Compound metabolized | Compound metabolized | Compound NOT metabolized | Compound metabolized | Compound metabolized | Compound metabolized | Compound metabolized | Compound metabolized | Compound metabolized |
| CC(C(=O)O)c1ccc2c(c1)Cc1cccnc1O2 (stereo not given) [PRANOPROFEN] | Compound metabolized | Compound metabolized | Compound metabolized | Compound NOT metabolized | Compound metabolized | Compound metabolized | Compound metabolized | Compound metabolized | Compound metabolized | Compound NOT metabolized | Compound metabolized | Compound metabolized | Compound metabolized | Compound metabolized | Compound metabolized | Compound metabolized | Compound metabolized | Compound metabolized | Compound metabolized | Compound metabolized |
| CCc1nc(N)nc(N)c1-c1ccc(Cl)cc1 [PYRIMETHAMINE] | Compound metabolized | Compound NOT metabolized | Compound NOT metabolized | Compound NOT metabolized | Compound NOT metabolized | Compound NOT metabolized | Compound NOT metabolized | Compound NOT metabolized | Compound NOT metabolized | Compound NOT metabolized | Compound NOT metabolized | Compound NOT metabolized | Compound NOT metabolized | Compound NOT metabolized | Compound NOT metabolized | Compound NOT metabolized | Compound NOT metabolized | Compound metabolized | Compound NOT metabolized | Compound NOT metabolized |
| COc1ccccc1OCC(O)CN1CCN(CC(=O)Nc2c(C)cccc2C)CC1 (stereo not given) [RANOLAZINE] | Compound metabolized | Compound NOT metabolized | Compound NOT metabolized | Compound NOT metabolized | Compound NOT metabolized | Compound NOT metabolized | Compound NOT metabolized | Compound metabolized | Compound NOT metabolized | Compound NOT metabolized | Compound NOT metabolized | Compound NOT metabolized | Compound NOT metabolized | Compound NOT metabolized | Compound NOT metabolized | Compound NOT metabolized | Compound NOT metabolized | Compound NOT metabolized | Compound NOT metabolized | Compound NOT metabolized |
